Test results taken from paper PMC12030678, “Investigations of In Vitro Anti-Acetylcholinesterase, Anti-Diabetic, Anti-Inflammatory, and Anti-Cancer Efficacy of Garden Cress (Lepidium sativum Linn.) Seed Extracts, as Well as In Vivo Biochemical and Hematological Assays” (Pharmaceutics, 2025).
In brackets after ≈: the same amount, converted by molar mass.

Experiments:
α-amylase enzyme = molecular target: T1, α-amylase enzyme (Sus scrofa, UniProt P00690); test: α-Amylase inhibition (DNSA method); assay type: biochemical; conditions: at 100 µg/mL
T1 sequence (P00690 16-511): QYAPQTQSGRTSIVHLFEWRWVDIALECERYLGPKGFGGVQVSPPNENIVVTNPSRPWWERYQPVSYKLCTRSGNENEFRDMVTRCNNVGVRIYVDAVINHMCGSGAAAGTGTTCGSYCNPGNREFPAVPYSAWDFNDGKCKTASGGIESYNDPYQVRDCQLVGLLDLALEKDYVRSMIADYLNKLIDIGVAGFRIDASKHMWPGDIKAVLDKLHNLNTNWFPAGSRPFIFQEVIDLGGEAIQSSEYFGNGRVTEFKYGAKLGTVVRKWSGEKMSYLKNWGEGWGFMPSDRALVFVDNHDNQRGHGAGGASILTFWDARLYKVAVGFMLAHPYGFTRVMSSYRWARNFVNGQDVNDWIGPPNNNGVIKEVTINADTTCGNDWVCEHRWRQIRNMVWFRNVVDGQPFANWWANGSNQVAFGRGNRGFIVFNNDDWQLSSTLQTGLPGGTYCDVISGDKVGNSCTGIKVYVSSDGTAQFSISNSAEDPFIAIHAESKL
Description: Anti-Alzheimer's activity
In this study, we assessed the inhibition percentage of the acetylcholinesterase (AChE)
This assay involved calculating the inhibition percentage (%) of α-amylase enzyme using
The mixture was then left at
temperature and diluted with 5 mL of distilled water.

α-glucosidase enzyme = α-glucosidase enzyme (Saccharomyces cerevisiae, UniProt P53341); test: α-Glucosidase inhibition (pNPG); assay type: biochemical; conditions: at 100 µg/mL
[1] = DPPH radical scavenging activity
Description: (§1) Antioxidant, scavenging, anti-Alzheimer, anti-diabetic, anti-arthritic, anti-inflammatory, cytotoxic, and enzymatic activities were assessed according to the proposed methods detailed in the Supplementary File. All biological activities were assessed in triplicate for all studied extracts. […]
The 1,1-Diphenyl-2-picryl-hydrazyl (DPPH) radical scavenging activities were evaluated using the method described by Rahman et al.. An antioxidant substance capable of donating a hydrogen atom to a solution containing DPPH- can reduce the stable free radical, causing the solution to change color from violet to pale yellow. The remaining DPPH- radical was quantified by measuring the intensity of a light-purple colored DPPH methanol solution in the visible range at 518 nm using a spectroscopic method. Two milliliters of a DPPH solution (100 µM) in ethanol were mixed with 2 mL of the sample (at each concentration).
The reaction mixture for each concentration was thoroughly vortexed and then incubated in the dark at room temperature for 30 minutes. The absorbance was then measured spectrophotometrically at 518 nm against a blank (ethanol). For the control, 2 mL of ethanol was added instead of the sample and run simultaneously with the test. Ascorbic acid was used at the same concentrations as a positive control. Percent inhibition of the DPPH free radical was calculated. […]

[2] = Total antioxidant capacity (TAC), phosphomolybdenum method; conditions: in vitro total antioxidant capacity
Description: The total antioxidant capacity (TAC) was determined by analyzing the green phosphate/Mo5+
[38]. Samples (at each concentration) were mixed with a reagent solution containing 0.3 N
sulfuric acid, 28 mM sodium phosphate, and 4 mM ammonium molybdate. Methanol (80%)
was used in place of the sample for the blank. The tubes were sealed and incubated in a
boiling water bath for 90 minutes. After cooling to room temperature, the absorbance was
standard. The antioxidant capacity was expressed as mg gallic acid equivalent per gram

[3] = ABTS radical scavenging activity
Description: as §1
An antioxidant substance capable of donating a hydrogen atom to a solution containing DPPH- can reduce the stable free radical, causing the solution to change color from violet to pale yellow. […]
Two milliliters of a DPPH […]
solution (100 µM) in ethanol were mixed with 2 mL of the sample (at each concentration). […]
For the control, 2 mL of ethanol was added instead of the sample and run simultaneously with the test. Ascorbic acid was used at the same concentrations as a positive control. […]
(7 mM) and potassium persulfate solution (2.4 mM). The working solution was prepared by mixing the two stock solutions in equal quantities and allowing them to react at room temperature in a dark place for 14 hours. The solution was then diluted by mixing 1 mL of ABTS solution with 60 mL of methanol to obtain an absorbance of 0.706 ± 0.01 units at 734 nm using a spectrophotometer. […] The tested samples (at each concentration) were allowed to react with 1 mL of the ABTS solution, and the absorbance was taken at 734 nm after 7 minutes using a spectrophotometer. […]

[4] = Iron reducing power (IRP); conditions: in vitro iron reducing power
Description: The iron reducing power was determined as µg/mL using the method proposed by Oyaizu
In brief, 1ml of the tested sample (at each concentration) was combined with
1mL of 200mM sodium phosphate buffer (pH 6.6) and 1mL of 1% potassium ferricyanide.
The mixture was then incubated at 50°C for 20 minutes, followed by the addition of 1mL of trichloroacetic acid (10%). After centrifugation at 2000rpm for 10 minutes, the upper layer solution (2.5 mL) was mixed with 2.5 mL of double deionized water and 1mL of fresh ferric chloride (0.1%). The absorbance was measured at 700nm against a blank prepared without the sample. Ascorbic acid was used at the same concentrations as a standard. A high absorbance at 700nm indicates a higher reducing power in the reaction mixture.

[5] = Nitric oxide (NO) radical scavenging activity
Description: Antioxidant, scavenging, anti-Alzheimer, anti-diabetic, anti-arthritic, anti-inflammatory, cytotoxic, and enzymatic activities were assessed according to the proposed methods detailed in the Supplementary File. All biological activities were assessed in triplicate for all studied extracts.

Bcl-2 = assay type: cell-based, human
Description: as §1
(§2) Cytotoxic activity and Enzymatic Assay […]
(§3) The cells were dispensed in a 96-well sterile […]
(§4) different concentrations of 10 μL of each compound or doxorubicin (positive control, in DMSO) for 48 h in a serum free medium prior to the MTT assay. […]
Corporation, following the manufacturer's instructions. Activities of Bcl-2 were measured using the Invitrogen Zymed Bcl-2 ELISA Kit (96 tests) from Invitrogen Corporation, following the manufacturer's instructions.

caspase-3 = assay type: cell-based, human
Description: as §1, §2, §3, §4
Activities of caspase-3 were measured by enzyme-linked immunosorbent assay (ELISA) using the Invitrogen caspase-3 (Active) (human) ELISA kit (96 tests) from Invitrogen Corporation, following the manufacturer's instructions. […]

Caco-2 cells = test: Cytotoxic activity, MTT assay, Caco-2; assay type: cell-based; conditions: Homo sapiens, 48 h, read-out: IC50 (μg/mL) Caco-2
Description: as §1
Cytotoxic activity and Enzymatic Assay
It will be assayed against human hepatocellular carcinoma (HepG-2), colon cancer (Caco-2), and lung cancer (A549) cells using 3-(4,5-dimethythiazol-2-yl)-2,5-diphenyl tetrazolium bromide (MTT) assay by determining the optical density (OD) at 570 nm according to the […]
as §3
different concentrations of 10 μL of each compound or doxorubicin (positive control, in DMSO) for 48 h in a serum free medium prior to the MTT assay. Subsequently, the media were carefully removed, and 40 μL of MTT (2.5 mg/mL) was added to each well and then incubated for an additional 4 h. Purple formazan dye crystals were solubilized by the addition of 200 μL of DMSO. The absorbance was measured at 570 nm using a SpectraMax Paradigm Multi-Mode microplate reader. The relative cell viability was expressed as the mean percentage of viable cells relative to the untreated control cells. All experiments were conducted in triplicate. Percent of the cell-growth inhibition (%) and the IC50 was calculated using IC50 calculation software. […]

[6] = molecular target: T2, 5-LOX enzyme (human recombinant) (Homo sapiens, UniProt P09917); test: 5-Lipoxygenase inhibition assay; assay type: biochemical; conditions: inhibition at 100 µg/mL
T2 construct: purchased Sigma-Aldrich 437996
T2 sequence (P09917 1-674): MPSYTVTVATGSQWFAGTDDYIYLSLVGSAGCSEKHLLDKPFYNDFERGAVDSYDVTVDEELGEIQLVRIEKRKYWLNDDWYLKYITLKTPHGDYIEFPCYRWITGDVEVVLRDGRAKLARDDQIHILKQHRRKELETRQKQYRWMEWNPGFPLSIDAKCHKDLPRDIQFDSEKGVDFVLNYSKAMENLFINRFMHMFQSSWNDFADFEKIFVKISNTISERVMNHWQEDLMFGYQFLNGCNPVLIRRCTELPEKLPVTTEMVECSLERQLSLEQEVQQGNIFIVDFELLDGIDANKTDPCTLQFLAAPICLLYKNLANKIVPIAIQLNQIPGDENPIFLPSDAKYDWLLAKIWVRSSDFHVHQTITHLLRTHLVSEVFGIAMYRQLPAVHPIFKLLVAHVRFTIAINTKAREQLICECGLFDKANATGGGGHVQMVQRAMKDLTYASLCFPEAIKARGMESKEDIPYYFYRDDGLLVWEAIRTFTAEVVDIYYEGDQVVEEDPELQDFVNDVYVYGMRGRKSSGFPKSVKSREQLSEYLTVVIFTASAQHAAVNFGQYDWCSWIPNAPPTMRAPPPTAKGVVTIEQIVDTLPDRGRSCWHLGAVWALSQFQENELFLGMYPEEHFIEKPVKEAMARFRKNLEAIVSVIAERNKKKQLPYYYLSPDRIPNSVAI
Description: different concentrations of 10 μL of each compound or doxorubicin (positive control, in DMSO) for 48 h in a serum free medium prior to the MTT assay. Subsequently, the media were carefully removed, and 40 μL of MTT (2.5 mg/mL) was added to each well and then incubated for an additional 4 h. […] The absorbance was measured at 570 nm using a SpectraMax Paradigm Multi-Mode microplate reader. The relative cell viability was expressed as the mean percentage of viable cells relative to the untreated control cells. […] Percent of the cell-growth inhibition (%) and the IC50 was calculated using IC50 calculation software.
Activities of caspase-3 were measured by enzyme-linked immunosorbent assay (ELISA) using the Invitrogen caspase-3 (Active) (human) ELISA kit (96 tests) from Invitrogen Corporation, following the manufacturer's instructions. Activities of Bcl-2 were measured using the Invitrogen Zymed Bcl-2 ELISA Kit (96 tests) from Invitrogen Corporation, following the manufacturer's instructions [52-54].

Sequence of α-glucosidase enzyme (P53341 whole entry): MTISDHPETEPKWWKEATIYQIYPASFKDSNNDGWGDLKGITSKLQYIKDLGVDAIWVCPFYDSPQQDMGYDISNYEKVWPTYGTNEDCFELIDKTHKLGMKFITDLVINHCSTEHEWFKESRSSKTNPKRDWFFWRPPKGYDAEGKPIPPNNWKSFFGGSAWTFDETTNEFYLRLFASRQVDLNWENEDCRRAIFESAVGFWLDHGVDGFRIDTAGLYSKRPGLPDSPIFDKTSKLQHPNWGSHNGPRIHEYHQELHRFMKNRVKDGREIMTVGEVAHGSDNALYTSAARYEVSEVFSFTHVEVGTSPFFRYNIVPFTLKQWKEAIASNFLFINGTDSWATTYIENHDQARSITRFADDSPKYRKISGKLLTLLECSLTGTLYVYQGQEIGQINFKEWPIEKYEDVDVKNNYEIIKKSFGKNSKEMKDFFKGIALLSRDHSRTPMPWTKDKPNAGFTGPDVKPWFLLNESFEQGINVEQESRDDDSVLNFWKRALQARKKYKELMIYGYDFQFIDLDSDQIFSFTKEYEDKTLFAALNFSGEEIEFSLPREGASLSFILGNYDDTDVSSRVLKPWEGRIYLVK

For C[C@H]1O[C@H](O[C@H]2[C@H](O)[C@@H](O)[C@@H](O[C@H]3[C@H](O)[C@@H](O)C(O)O[C@@H]3CO)O[C@@H]2CO)[C@H](O)[C@@H](O)[C@@H]1N[C@H]1C=C(CO)[C@@H](O)[C@H](O)[C@H]1O (stereo partly drawn) [Acarbose], the “α-Amylase Inhibition (%)” value (α-amylase enzyme) was 66.90 ± 0.10% and the “α-Glucosidase Inhibition (%)” value (α-glucosidase enzyme) was 56.65 ± 0.10%.
With O=C1O[C@H]([C@@H](O)CO)C(O)=C1O [Ascorbic Acid] the “IC50 (µg/mL) DPPH” value [1] was 4.29 ± 0.03 µg/mL (≈ 24.4 µM), the “Inhibition (%) DPPH” value ([1]; at 100 µg/mL) was 66.50 ± 0.11% and the “TAC (mg Gallic Acid/g)” value [2] was 84.50 ± 0.13 mg Gallic Acid/g. The “IC50 (µg/mL) ABTS” value [3] was 3.80 ± 0.04 µg/mL (≈ 21.6 µM), the “Inhibition (%) ABTS” value ([3]; at 100 µg/mL) was 70.25 ± 0.11% and the “IRP” value [4] was 76.75 ± 0.13 µg/mL. For the same molecule, the “IC50 (µg/mL) NO” value [5] was 5.51 ± 0.02 µg/mL (≈ 31.3 µM) and the “Inhibition (%) NO” value ([5]; at 100 µg/mL) was 60.75 ± 0.11%.
In the case of COc1cccc2c1C(=O)c1c(O)c3c(c(O)c1C2=O)C[C@@](O)(C(=O)CO)C[C@@H]3O[C@H]1C[C@H](N)[C@H](O)[C@H](C)O1 [Doxorubicin], the “Bcl-2 (ng/mL) A549” value (Bcl-2; treated A549 cells, DMSO control 12.58 ± 0.05) is reported as 3.27 ± 0.01 ng/mL, the “Bcl-2 (ng/mL) Caco-2” value (Bcl-2; treated Caco-2 cells, DMSO control 5.74 ± 0.08) is reported as 1.49 ± 0.02 ng/mL and the “Bcl-2 (ng/mL) HepG-2” value (Bcl-2; treated HepG-2 cells, DMSO control 11.15 ± 0.15) is reported as 2.90 ± 0.04 ng/mL. For the same molecule, the “Caspase-3 (pg/mL) A549” value (caspase-3; treated A549 cells, DMSO control 88.67 ± 0.12) was 341.39 ± 0.46 pg/mL, the “Caspase-3 (pg/mL) Caco-2” value (caspase-3; treated Caco-2 cells, DMSO control 94.81 ± 0.14) was 365.02 ± 0.55 pg/mL and the “Caspase-3 (pg/mL) HepG-2” value (caspase-3; treated HepG-2 cells, DMSO control 108.79 ± 0.85) was 418.84 ± 3.27 pg/mL. For the same molecule, the IC50 (Caco-2 cells) was 33.3 µg/mL (≈ 61.2 µM).
For CC(c1cc2ccccc2s1)N(O)C(N)=O (stereo not drawn) [Zileuton], the “5-LOX (%)” value [6] was 55.71 ± 0.11 (Zileuton) %.
